Among the data in the NIST ThermoML archive (doi:10.1016/j.tca.2018.05.017) are Normal melting temperature values, retold here.

Numbers after ± are expanded uncertainties.

For the data set the following is noted: Crystal; DTA.

Take `CCCCCCCC[NH+](CCCCCCCC)CCCCCCCC.[Cl-]` [trioctylammonium chloride]: the Normal melting temperature is 72.20 ± 5 °C.
